{"source": "patent US20220281848A1", "about": "“PYRAZOLE-SUBSTITUTED PYRROLIDINONES AS HERBICIDES” (FMC Corporation, priority 2019, published 2022)", "tested_on": "plants", "test": "Test D pre-emergence, other plants of Tables D1 and D3", "assay_type": "in vivo", "details": "for damage to plant (100=total damage to plant; 0=no damage to plant), SORVU: preemergent, 20 DAA; for damage to plant, ALOMY / damage to plant, AVEFA / damage to plant, BEAVA / damage to plant, BROTE / damage to plant, BRSNN / damage to plant, CHEAL / damage to plant, GALAP / damage to plant, HORVW / damage to plant, KCHSC / damage to plant, LOLPE / damage to plant, POAAN / damage to plant, POLCO / damage to plant, SINAR / damage to plant, STEME / damage to plant, VERPE: pre-emergence, 100=total damage, 0=no damage", "how_it_was_run": "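Damage was rated visually from 0 (none) to 100 (total), at 20 DAA for pre-emergence and 15 d for post-emergence. Plants grew from safener-treated seed in a glasshouse at 24/18° C. or 20/16° C. day/night, 65% humidity, watered twice daily.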", "data": [{"molecule": "CCn1nc([C@H]2CN(C)C(=O)[C@@H]2C(=O)Nc2cccc(F)c2F)c2cc(F)ccc21", "note": "[Compound 8]", "values": [{"measurement": "damage to plant (100=total damage to plant; 0=no damage to plant), SORVU", "setting": "rate 250", "result": 20}, {"measurement": "damage to plant (100=total damage to plant; 0=no damage to plant), SORVU", "setting": "rate 500", "result": 30}, {"measurement": "damage to plant, ALOMY", "setting": "rate 15, 20 DAA", "result": 0}, {"measurement": "damage to plant, AVEFA", "setting": "rate 15, 20 DAA", "result": 0}, {"measurement": "damage to plant, BEAVA", "setting": "rate 15, 20 DAA", "result": 0}, {"measurement": "damage to plant, BROTE", "setting": "rate 15, 20 DAA", "result": 0}, {"measurement": "damage to plant, BRSNN", "setting": "rate 15, 20 DAA", "result": 0}, {"measurement": "damage to plant, CHEAL", "setting": "rate 15, 20 DAA", "result": 0}, {"measurement": "damage to plant, GALAP", "setting": "rate 15, 20 DAA", "result": 0}, {"measurement": "damage to plant, HORVW", "setting": "rate 15, 20 DAA", "result": 0}, {"measurement": "damage to plant, KCHSC", "setting": "rate 15, 20 DAA", "result": 0}, {"measurement": "damage to plant, LOLPE", "setting": "rate 15, 20 DAA", "result": 0}, {"measurement": "damage to plant, POAAN", "setting": "rate 15, 20 DAA", "result": 0}, {"measurement": "damage to plant, POLCO", "setting": "rate 15, 20 DAA", "result": 0}, {"measurement": "damage to plant, SINAR", "setting": "rate 15, 20 DAA", "result": 0}, {"measurement": "damage to plant, STEME", "setting": "rate 15, 20 DAA", "result": 0}, {"measurement": "damage to plant, VERPE", "setting": "rate 15, 20 DAA", "result": 0}, {"measurement": "damage to plant, ALOMY", "setting": "rate 30, 20 DAA", "result": 0}, {"measurement": "damage to plant, AVEFA", "setting": "rate 30, 20 DAA", "result": 0}, {"measurement": "damage to plant, BEAVA", "setting": "rate 30, 20 DAA", "result": 0}, {"measurement": "damage to plant, BROTE", "setting": "rate 30, 20 DAA", "result": 0}, {"measurement": "damage to plant, BRSNN", "setting": "rate 30, 20 DAA", "result": 0}, {"measurement": "damage to plant, CHEAL", "setting": "rate 30, 20 DAA", "result": 0}, {"measurement": "damage to plant, GALAP", "setting": "rate 30, 20 DAA", "result": 0}, {"measurement": "damage to plant, HORVW", "setting": "rate 30, 20 DAA", "result": 0}, {"measurement": "damage to plant, KCHSC", "setting": "rate 30, 20 DAA", "result": 0}, {"measurement": "damage to plant, LOLPE", "setting": "rate 30, 20 DAA", "result": 0}, {"measurement": "damage to plant, POAAN", "setting": "rate 30, 20 DAA", "result": 0}, {"measurement": "damage to plant, POLCO", "setting": "rate 30, 20 DAA", "result": 0}, {"measurement": "damage to plant, SINAR", "setting": "rate 30, 20 DAA", "result": 0}, {"measurement": "damage to plant, STEME", "setting": "rate 30, 20 DAA", "result": 0}, {"measurement": "damage to plant, VERPE", "setting": "rate 30, 20 DAA", "result": 0}, {"measurement": "damage to plant, ALOMY", "setting": "rate 60, 20 DAA", "result": 0}, {"measurement": "damage to plant, AVEFA", "setting": "rate 60, 20 DAA", "result": 0}, {"measurement": "damage to plant, BEAVA", "setting": "rate 60, 20 DAA", "result": 0}, {"measurement": "damage to plant, BROTE", "setting": "rate 60, 20 DAA", "result": 0}, {"measurement": "damage to plant, BRSNN", "setting": "rate 60, 20 DAA", "result": 0}, {"measurement": "damage to plant, CHEAL", "setting": "rate 60, 20 DAA", "result": 0}, {"measurement": "damage to plant, GALAP", "setting": "rate 60, 20 DAA", "result": 0}, {"measurement": "damage to plant, HORVW", "setting": "rate 60, 20 DAA", "result": 0}, {"measurement": "damage to plant, KCHSC", "setting": "rate 60, 20 DAA", "result": 0}, {"measurement": "damage to plant, LOLPE", "setting": "rate 60, 20 DAA", "result": 0}, {"measurement": "damage to plant, POAAN", "setting": "rate 60, 20 DAA", "result": 0}, {"measurement": "damage to plant, POLCO", "setting": "rate 60, 20 DAA", "result": 0}, {"measurement": "damage to plant, SINAR", "setting": "rate 60, 20 DAA", "result": 0}, {"measurement": "damage to plant, STEME", "setting": "rate 60, 20 DAA", "result": 0}, {"measurement": "damage to plant, VERPE", "setting": "rate 60, 20 DAA", "result": 0}, {"measurement": "damage to plant, ALOMY", "setting": "rate 130, 20 DAA", "result": 0}, {"measurement": "damage to plant, AVEFA", "setting": "rate 130, 20 DAA", "result": 0}, {"measurement": "damage to plant, BEAVA", "setting": "rate 130, 20 DAA", "result": 0}, {"measurement": "damage to plant, BROTE", "setting": "rate 130, 20 DAA", "result": 0}, {"measurement": "damage to plant, BRSNN", "setting": "rate 130, 20 DAA", "result": 0}, {"measurement": "damage to plant, CHEAL", "setting": "rate 130, 20 DAA", "result": 0}, {"measurement": "damage to plant, GALAP", "setting": "rate 130, 20 DAA", "result": 0}, {"measurement": "damage to plant, HORVW", "setting": "rate 130, 20 DAA", "result": 0}, {"measurement": "damage to plant, KCHSC", "setting": "rate 130, 20 DAA", "result": 0}, {"measurement": "damage to plant, LOLPE", "setting": "rate 130, 20 DAA", "result": 0}, {"measurement": "damage to plant, POAAN", "setting": "rate 130, 20 DAA", "result": 0}, {"measurement": "damage to plant, POLCO", "setting": "rate 130, 20 DAA", "result": 0}, {"measurement": "damage to plant, SINAR", "setting": "rate 130, 20 DAA", "result": 0}, {"measurement": "damage to plant, STEME", "setting": "rate 130, 20 DAA", "result": 0}, {"measurement": "damage to plant, VERPE", "setting": "rate 130, 20 DAA", "result": 0}, {"measurement": "damage to plant, ALOMY", "setting": "rate 250, 20 DAA", "result": 0}, {"measurement": "damage to plant, AVEFA", "setting": "rate 250, 20 DAA", "result": 0}, {"measurement": "damage to plant, BEAVA", "setting": "rate 250, 20 DAA", "result": 0}, {"measurement": "damage to plant, BROTE", "setting": "rate 250, 20 DAA", "result": 0}, {"measurement": "damage to plant, BRSNN", "setting": "rate 250, 20 DAA", "result": 0}, {"measurement": "damage to plant, CHEAL", "setting": "rate 250, 20 DAA", "result": 0}, {"measurement": "damage to plant, GALAP", "setting": "rate 250, 20 DAA", "result": 0}, {"measurement": "damage to plant, HORVW", "setting": "rate 250, 20 DAA", "result": 0}, {"measurement": "damage to plant, KCHSC", "setting": "rate 250, 20 DAA", "result": 0}, {"measurement": "damage to plant, LOLPE", "setting": "rate 250, 20 DAA", "result": 0}, {"measurement": "damage to plant, POAAN", "setting": "rate 250, 20 DAA", "result": 0}, {"measurement": "damage to plant, POLCO", "setting": "rate 250, 20 DAA", "result": 0}, {"measurement": "damage to plant, SINAR", "setting": "rate 250, 20 DAA", "result": 0}, {"measurement": "damage to plant, STEME", "setting": "rate 250, 20 DAA", "result": 0}, {"measurement": "damage to plant, VERPE", "setting": "rate 250, 20 DAA", "result": 0}, {"measurement": "damage to plant, ALOMY", "setting": "rate 500, 20 DAA", "result": 10}, {"measurement": "damage to plant, AVEFA", "setting": "rate 500, 20 DAA", "result": 10}, {"measurement": "damage to plant, BEAVA", "setting": "rate 500, 20 DAA", "result": 0}, {"measurement": "damage to plant, BROTE", "setting": "rate 500, 20 DAA", "result": 0}, {"measurement": "damage to plant, BRSNN", "setting": "rate 500, 20 DAA", "result": 10}, {"measurement": "damage to plant, CHEAL", "setting": "rate 500, 20 DAA", "result": 0}, {"measurement": "damage to plant, GALAP", "setting": "rate 500, 20 DAA", "result": 0}, {"measurement": "damage to plant, HORVW", "setting": "rate 500, 20 DAA", "result": 10}, {"measurement": "damage to plant, KCHSC", "setting": "rate 500, 20 DAA", "result": 0}, {"measurement": "damage to plant, LOLPE", "setting": "rate 500, 20 DAA", "result": 0}, {"measurement": "damage to plant, POAAN", "setting": "rate 500, 20 DAA", "result": 60}, {"measurement": "damage to plant, POLCO", "setting": "rate 500, 20 DAA", "result": 0}, {"measurement": "damage to plant, SINAR", "setting": "rate 500, 20 DAA", "result": 0}, {"measurement": "damage to plant, STEME", "setting": "rate 500, 20 DAA", "result": 0}, {"measurement": "damage to plant, VERPE", "setting": "rate 500, 20 DAA", "result": 0}]}]}
